Experimental data: patent US9126959B2, “PPAR-sparing thiazolidinedione salts for the treatment of metabolic diseases” (Metabolic Solutions Development Company, LLC, priority 2009, dated 2015)
Structures can show the parent of a compound that is named as a salt.

Columns and labels:
[1] = AUC of compound related materials after oral dosing of Compound B free acid or its Na or K salt; type: in vivo; details: cynomolgus monkeys, 250 mg free acid equivalents, formulated tablets; compared with free acid
Procedure: Referring to FIG. 10, the area under the curve (AUC) of compound related materials was compared following dosing of 250 mg of Compound B as powder in capsules of free acid (PIC), formulated tablets of micronized free acid, or formulated tablets of the Na or K salt of Compound B given at the same free acid equivalents. (N=4 cynomolgus monkeys). The formulated, compressed tablet also contained in each case approximately 40.5% lactose, 16.8% microcrystalline cellulose, 1.9% Croscarmellose sodium, 0.5% colloidal silicon dioxide, and 0.9% magnesium stearate.

[2] = Moisture sorption analysis of metal salts of Compound B; type: physicochemical; details: 25° C.
Procedure: Metal salts of compounds of Formula I were characterized using XRPD, DSC, thermogravimetry, and moisture sorption analyses. Note that XRPD patterns described below, and provided in FIGS. 1 and 5 were obtained using a Bruker Model D8 X-Ray Diffractometer. Thermogravimetric analyses, DSC analyses, and moisture sorption analyses were performed using a TA Instruments Universal V4.4A instrument.
FIG. 1 provides the XRPD pattern of a sample of a sodium salt of Compound B Referring to FIGS. 2-4, thermogravimetric, DSC, and moisture sorption analyses were performed on a sodium salt of Compound B. Thermogravimetric analysis was conducted using 7.5450 mg of the sodium salt and an instrument setting of 10° C./min. The DSC analysis was performed using a 2.00 mg sample of the sodium salt and an instrument setting of 10° C./min. The moisture sorption analysis was performed on 14.07 mg of sodium salt over a relative humidity range of 5% to 95% at 25° C. with 180 minute max. equilibration time and data sampling every 2 minutes.
FIG. 5 provides the XRPD pattern of a sample of a potassium salt of Compound B Referring to FIGS. 6-8, thermogravimetric, DSC, and moisture sorption analyses were performed on a potassium salt of Compound B. Thermogravimetric analysis was conducted using 15.9290 mg of the potassium salt and an instrument setting of 10° C./min. […]

[3] = Bioavailability of sodium salt of Compound A, oral capsule versus iv injection, crossover design; type: in vivo; details: male cynomolgus monkeys, oral gavage, 90 mg free base equivalents in gelatin capsules; compared with free base
Procedure: The monkeys fasted overnight and were dosed by oral gavage washed down with 10 ml tap water. Blood samples were taken at 0.25, 0.5, 1, 2, 3, 4, 6, 9, 12, 24, and 48 hours after a single dosage was administered and assayed for drug related materials with a LCMS assay using an internal standard. 90 mg of drug was put in 00 gelatin capsules containing 90 mg of free base equivalents. This was compared to an iv injection of 2 ml/kg and 45 mg of free base solution in 50% hydroxypropyl b-cyclodextran. The absolute availability versus an iv injection was determined for both parent compound and major metabolite.

diabetic KKAy mouse = test: Blood glucose lowering in the diabetic KKAy mouse; type: in vivo; details: diabetic KKAy mice, gavage once daily, measured after 4 daily doses
Procedure: In these experiments, free base or sodium salt was given to diabetic KKAy mice (N=6) and blood glucose was measured after 4 days of daily treatment at the doses indicated. KKAy mice, 8-12 weeks of age, were given the doses of the compounds according to the dosages on the X axis of FIG. 11. The compounds were given by gavage once daily at 10 mg/kg. On the fifth day (after 4 daily doses at the levels show) a blood sample was taken to measure plasma glucose.

SMILES | bioavailability (AUC of compound related materials) [1] | moisture uptake ([2]; between ~6% and ~95% RH) [wt %] | absolute availability versus an iv injection, major metabolite [3] | absolute availability versus an iv injection, parent compound [3] | lowering blood glucose (plasma glucose) (diabetic KKAy mouse) | water uptake ([2]; relative humidity increased from ~5% to ~95% RH) [wt %]
COc1cccc(C(=O)COc2ccc(CC3SC(=O)[N-]C3=O)cc2)c1.[Na+] (stereo not shown) [sodium salt of Compound B, Sodium 5-{4-[2-(3-methoxyphenyl)-2-oxoethoxy]benzyl}-2,4-dioxo-1,3-thiazolidin-3-ide] | significantly higher bioavailability | ~10.0 |  |  |  | 
CCc1ccc(C(=O)COc2ccc(CC3SC(=O)NC3=O)cc2)nc1 (stereo not shown) [sodium salt of Compound A, 5-(4-(2-(5-ethylpyridin-2-yl)-2-oxoethoxy)benzyl)-1,3-thiazolidine-2,4-dione] |  |  | significantly higher bioavailability | significantly higher bioavailability | excellent dose response for lowering blood glucose | 
COc1cccc(C(=O)COc2ccc(CC3SC(=O)[N-]C3=O)cc2)c1.[K+] (stereo not shown) [potassium salt of Compound B, Potassium 5-{4-[2-(3-methoxyphenyl)-2-oxoethoxy]benzyl}-2,4-dioxo-1,3-thiazolidin-3-ide] | significantly higher bioavailability |  |  |  |  | ~21.1
